According to the NIST ThermoML archive (doi:10.1016/j.jct.2018.11.005):

Conditions: Liquid; for mass density: Vibrating tube method; for speed of sound: Frequency=5 MHz, Single path-length method

CCC(=O)[O-].CC[NH2+]CCO [N-ethyl-2-hydroxyethylammonium propionate]
Conditions	mass density [kg/m3]	speed of sound [m/s]
298.14 K, 15000 kPa	1058.3	–
298.14 K, 30000 kPa	1063.5	–
298.15 K, 10000 kPa	1057	–
298.15 K, 25000 kPa	1061.8	–
298.15 K, 35000 kPa	1064.6	–
298.16 K, 100 kPa	1051.9	–
298.16 K, 20000 kPa	1059.9	–
303.08 K, 35000 kPa	1060.7	–
303.12 K, 30000 kPa	1059.2	–
303.14 K, 20000 kPa	1055.6	–
303.14 K, 25000 kPa	1057.4	–
303.15 K, 100 kPa	–	1566.6
303.15 K, 1000 kPa	–	1570.6
303.15 K, 2000 kPa	–	1574.6
303.15 K, 3000 kPa	–	1578.7
303.15 K, 4000 kPa	–	1582.8
303.15 K, 5000 kPa	–	1586.9
303.15 K, 6000 kPa	–	1589.6
303.15 K, 7000 kPa	–	1592.4
303.15 K, 8000 kPa	–	1595.1
303.15 K, 9000 kPa	–	1599.3
303.15 K, 10000 kPa	1052.1	1603.5
303.15 K, 11000 kPa	–	1607.7
303.15 K, 12000 kPa	–	1611.9
303.15 K, 13000 kPa	–	1616.1
303.15 K, 14000 kPa	–	1620.3
303.15 K, 15000 kPa	1053.4	1623.2
303.15 K, 16000 kPa	–	1627.4
303.15 K, 17000 kPa	–	1631.7
303.15 K, 18000 kPa	–	1634.6
303.15 K, 19000 kPa	–	1637.5
303.15 K, 20000 kPa	–	1640.4
303.16 K, 100 kPa	1046.7	–
313.07 K, 25000 kPa	1047.8	–
313.07 K, 30000 kPa	1049.6	–
313.07 K, 35000 kPa	1051.4	–
313.09 K, 10000 kPa	1041.8	–
313.09 K, 20000 kPa	1045.6	–
313.11 K, 15000 kPa	1043.2	–
313.14 K, 100 kPa	1035.6	–
313.15 K, 100 kPa	–	1535.6
313.15 K, 1000 kPa	–	1539.4
313.15 K, 2000 kPa	–	1543.3
313.15 K, 3000 kPa	–	1547.2
313.15 K, 4000 kPa	–	1552.4
313.15 K, 5000 kPa	–	1555
313.15 K, 6000 kPa	–	1560.3
313.15 K, 7000 kPa	–	1564.2
313.15 K, 8000 kPa	–	1568.2
313.15 K, 9000 kPa	–	1572.2
313.15 K, 10000 kPa	–	1576.2
313.15 K, 11000 kPa	–	1578.9
313.15 K, 12000 kPa	–	1583
313.15 K, 13000 kPa	–	1587.1
313.15 K, 14000 kPa	–	1591.1
313.15 K, 15000 kPa	–	1595.3
313.15 K, 16000 kPa	–	1599.4
313.15 K, 17000 kPa	–	1603.5
313.15 K, 18000 kPa	–	1607.7
313.15 K, 19000 kPa	–	1610.5
313.15 K, 20000 kPa	–	1614.7
323.15 K, 100 kPa	1024.4	1504.9
323.15 K, 1000 kPa	–	1508.6
323.15 K, 2000 kPa	–	1512.4
323.15 K, 3000 kPa	–	1517.3
323.15 K, 4000 kPa	–	1522.4
323.15 K, 5000 kPa	–	1527.4
323.15 K, 6000 kPa	–	1531.2
323.15 K, 7000 kPa	–	1535
323.15 K, 8000 kPa	–	1538.9
323.15 K, 9000 kPa	–	1542.8
323.15 K, 10000 kPa	–	1546.6
323.15 K, 11000 kPa	–	1550.5
323.15 K, 12000 kPa	–	1555.7
323.15 K, 13000 kPa	–	1559.7
323.15 K, 14000 kPa	–	1563.6
323.15 K, 15000 kPa	1032.6	1566.3
323.15 K, 16000 kPa	–	1570.3
323.15 K, 17000 kPa	–	1572.9
323.15 K, 18000 kPa	–	1575.6
323.15 K, 19000 kPa	–	1579.6
323.15 K, 20000 kPa	1035.2	1583.7
323.15 K, 25000 kPa	1037.2	–
323.15 K, 30000 kPa	1039.3	–
323.15 K, 35000 kPa	1041.5	–
323.16 K, 10000 kPa	1030.5	–
333.14 K, 10000 kPa	1018	–
333.15 K, 100 kPa	–	1485.5
333.15 K, 1000 kPa	–	1489.2
333.15 K, 2000 kPa	–	1494.2
333.15 K, 3000 kPa	–	1497.9
333.15 K, 4000 kPa	–	1500.5
333.15 K, 5000 kPa	–	1503
333.15 K, 6000 kPa	–	1508
333.15 K, 7000 kPa	–	1511.8
333.15 K, 8000 kPa	–	1514.4
333.15 K, 9000 kPa	–	1519.4
333.15 K, 10000 kPa	–	1523.2
333.15 K, 11000 kPa	–	1525.8
333.15 K, 12000 kPa	–	1530.9
333.15 K, 13000 kPa	–	1533.5
333.15 K, 14000 kPa	–	1536.1
333.15 K, 15000 kPa	1021	1540
333.15 K, 16000 kPa	–	1542.6
333.15 K, 17000 kPa	–	1546.5
333.15 K, 18000 kPa	–	1550.4
333.15 K, 19000 kPa	–	1553
333.15 K, 20000 kPa	–	1555.6
333.15 K, 30000 kPa	1028.8	–
333.15 K, 35000 kPa	1031.3	–
333.16 K, 100 kPa	1011.9	–
333.16 K, 20000 kPa	1023.7	–
333.16 K, 25000 kPa	1026.2	–
343.14 K, 15000 kPa	1008.7	–
343.14 K, 25000 kPa	1014.3	–
343.15 K, 100 kPa	–	1450.5
343.15 K, 1000 kPa	–	1454.2
343.15 K, 2000 kPa	–	1458
343.15 K, 3000 kPa	–	1461.8
343.15 K, 4000 kPa	–	1466.7
343.15 K, 5000 kPa	–	1470.5
343.15 K, 6000 kPa	–	1474.3
343.15 K, 7000 kPa	–	1478.1
343.15 K, 8000 kPa	–	1481.9
343.15 K, 9000 kPa	–	1485.7
343.15 K, 10000 kPa	–	1489.5
343.15 K, 11000 kPa	–	1493.3
343.15 K, 12000 kPa	–	1497.2
343.15 K, 13000 kPa	–	1501
343.15 K, 14000 kPa	–	1504.8
343.15 K, 15000 kPa	–	1507.4
343.15 K, 16000 kPa	–	1511.2
343.15 K, 17000 kPa	–	1516.3
343.15 K, 18000 kPa	–	1520.1
343.15 K, 19000 kPa	–	1524
343.15 K, 20000 kPa	–	1526.6
343.17 K, 100 kPa	998.8	–
343.17 K, 10000 kPa	1004.6	–
343.17 K, 30000 kPa	1017.4	–
343.19 K, 35000 kPa	1020.1	–
343.21 K, 20000 kPa	1011.2	–
353.15 K, 100 kPa	–	1416
353.15 K, 1000 kPa	–	1419.9
353.15 K, 2000 kPa	–	1423.8
353.15 K, 3000 kPa	–	1428.9
353.15 K, 4000 kPa	–	1434
353.15 K, 5000 kPa	–	1438
353.15 K, 6000 kPa	–	1443.1
353.15 K, 7000 kPa	–	1447
353.15 K, 8000 kPa	–	1451
353.15 K, 9000 kPa	–	1456.1
353.15 K, 10000 kPa	–	1460
353.15 K, 11000 kPa	–	1465.1
353.15 K, 12000 kPa	–	1469
353.15 K, 13000 kPa	–	1471.8
353.15 K, 14000 kPa	–	1476.9
353.15 K, 15000 kPa	–	1480.8
353.15 K, 16000 kPa	–	1484.7
353.15 K, 17000 kPa	–	1488.6
353.15 K, 18000 kPa	–	1492.5
353.15 K, 19000 kPa	–	1496.4
353.15 K, 20000 kPa	–	1500.2
